Data set [1] concerns dopamine, norepinephrine, and serotonin receptors. Particulars: topical.
Data set [2] relates to local peripheral and generalized pain. As to the kind of experiment: Nuchal (BONATH) application of compounded opioids for pain relief in patients. Particulars: patients tapering off oral narcotics, nuchal delivery as only pain therapy. An excerpt:
Previously described has is the “nuchal” (back of the neck at the hairline, or “BONATH”) application of triptans (Migraderm using sumatriptan) for migraine headache, tizanidine (Tizoderm) for cervical spasm and tension headache; and, apomorphine for the Parkinson's disease symptoms of tremor, rigidity, speech difficulties, and other “non-motor” symptoms.

The subject of data set [3] is free nerve endings. Nature of the data set: Onset of clinical effect of TPNA therapy. Type of data set: in vivo, human. Conditions: topical.
For data set [4] the following is noted: after topical application in cold cream; cited from earlier work.

On to `NCCc1ccc(O)c(O)c1` [dopamine], for which, in data set [1], the “effect on symptoms of neuropathic pain and other symptoms of nerve dysfunction” value is reported as “treat symptoms of neuropathic pain”. On to `COc1cccc(C2(O)CCCCC2CN(C)C)c1` (stereo not drawn) [tramadol], for which the narcotic withdrawal symptoms entry in data set [2] is reported as “no significant narcotic withdrawal symptoms”. Consider `CN1CC[C@]23c4c5ccc(O)c4O[C@H]2[C@@H](O)C=C[C@H]3[C@H]1C5.O=S(=O)(O)O` [morphine sulfate], for which the narcotic withdrawal symptoms result in data set [2] is reported as “no significant narcotic withdrawal symptoms”. For the compound `CN1CCc2cccc3c2[C@H]1Cc1ccc(O)c(O)c1-3` [apomorphine], the “onset of clinical effect” value in data set [3] was in the range of 10 to 15 min. In addition, the “effect on symptoms of neuropathic pain and other symptoms of nerve dysfunction” value in data set [1] is reported as “treat symptoms of neuropathic pain”.

For `CN1CC[C@]23c4c5ccc(O)c4O[C@H]2[C@@H](O)C=C[C@H]3[C@H]1C5` [morphine], the “morphine levels in blood or urine” value in data set [4] is “not detected”.

These data come from US20160058752A1, “TOPICAL […]-AFFECTIVE (TPNA) THERAPY FOR N[…]” (AFGIN PHARMA, LLC, priority 2014, published 2016).
